The source of these data is publication PMC9068900, “Pharmacology of Kappa Opioid Receptors: Novel Assays and Ligands” (Frontiers in Pharmacology, 2022).

In one assay the target is T1, human mu opioid receptor (Homo sapiens, UniProt P35372).
T1 construct: expressed in transfected cells
The experiment in a line: Calcium mobilization in CHO cells co-expressing the mu receptor and Gαqi5. The format is cell-based. (Calcium flux is commonly read through the fluorescence of an indicator in the cells.)

In assay [1] the target is T2, human delta opioid receptor (Homo sapiens, UniProt P41143).
T2 construct: expressed in transfected cells
The experiment in a line: Calcium mobilization in CHO cells co-expressing the delta receptor and GαqG66Di5. It is filed as cell-based.

The test system of assay [2] is human kappa opioid receptor. Description: Bias factor, G protein vs β-arrestin 2, from BRET data. The procedure: To quantify the differences in agonist efficacies for G protein and arrestin interactions, bias factors were calculated by choosing the endogenous kappa opioid ligand Dyn A as standard unbiased ligand. For this analysis, the Emax and EC50 of the agonist were derived using a 3-parameter logistic model with slope values equal to unity. […] Under such conditions, the relative ratio (Emax/EC50)lig/(Emax/EC50)Dyn A is equivalent to the relative (τ/K)lig/(τ/K)Dyn A ratio as defined by the operational model ([Black and Leff, 1983]; [Griffin et al., 2007]). Taking ratios of these values between G protein and arrestin can cancel the common K and yield the ratio of ligand intrinsic efficacy across the two transduction proteins. Thus, the following formula was used for calculating agonist bias factors in log10 units: bias factor= log[(Emax/EC50)lig/(Emax/EC50)Dyn A]G prot.−log[(Emax/EC50)lig/(Emax/EC50)Dyn A]β−arr.
The pharmacological terminology and computations related to biased agonism were consistent with IUPHAR recommendations ([Kolb et al., 2022]).
In general terms: BRET reads energy transfer from a luciferase to a nearby fluorophore.

Assay [3] has as its target T3, human kappa opioid receptor (Homo sapiens, UniProt P41145). The experiment in a line: biochemical. The format is biochemical. More on the design: 13-mer linker peptide […]; expressed in transfected cells; enriched plasma membranes used.
Assay [4] deals with T3, human kappa opioid receptor. Description: Calcium mobilization in CHO cells co-expressing the kappa receptor and Gαqi5. It is filed as cell-based. More on the design: expressed in transfected cells.
Assay [5] has the same target. Description: Dynamic mass redistribution (DMR) label-free assay in CHO cells. More on the design: expressed in transfected cells. The format is cell-based. The procedure:
DMR experiments were conducted as previously described ([Malfacini et al., 2018]). Chinese Hamster Ovary (CHO) cells stably expressing the human kappa receptor were kindly provided by L Toll (Torrey Pines Institute for Molecular Studies, Port St. Lucie, United States). Cells were cultured in Dulbecco’s Modified Eagle Medium: Nutrient Mixture F-12 (DMEM/F12) supplemented with 10% (v/v) Fetal Calf Serum (FCS), 100 U/ml penicillin, 100 μg/ml streptomycin, 2 mM L-glutamine, 15 mM HEPES. The medium was supplemented with 400 μg/ml G418 to maintain expression. Cells were seeded at a density of 45,000 cells/well in 120 μL into fibronectin-coated EnspireTM-LC 96-wells plates and cultured for 20 h to form a confluent monolayer. On the day of the experiment, cells were washed twice and maintained with assay buffer: HBSS with 20 mM HEPES, 0.01% BSA fraction V; for 90 min before the experiment. DMR was monitored in real-time with a temporal resolution of 44 s throughout the assay. Experiments were performed at 37°C, using an EnSight Multimode Plate Reader (PerkinElmer). A 5 min baseline was first established, followed by adding compounds manually in a volume of 40 μL and recording compound-triggered DMR signal for 60 min. In antagonism experiments, ligands tested as antagonists were added 30 min before agonist administration. Maximum picometers (pm) modification (peak) were used to determine agonist response after baseline normalization.
The pharmacological terminology is consistent with the International Union of Basic and Clinical Pharmacology (IUPHAR) recommendations ([Neubig et al., 2003]). Concentration-response curves to agonists were fitted to the four-parameter logistic nonlinear regression model as follows: Effect=Basal+ Emax−Basal/1+10^ (LogEC50−Log[ligand]) × HillSlope
If unsurmountable antagonist behavior was detected, the pKB value was derived as follows: a double-reciprocal plot of equi-effective concentrations of agonist (A) in the absence (1/A) and presence (1/A’) of the antagonist (B) was constructed and pKB was derived from the equation pKB = log {(slope-1)/[B]} ([Kenakin, 2009]).

The target is the same in assay [6]. The experiment in a line: Summary over the assays used (calcium mobilization, DMR, BRET). It is filed as cell-based. More on the design: expressed in transfected cells.
The target is the same in assay [7]. The experiment in a line: BRET kappa-β-arrestin 2 interaction, SH-SY5Y whole cells. Further details: 13-mer linker peptide […]; expressed in transfected cells; enriched plasma membranes used. The format is cell-based.
A further assay has as its system kappa opioid receptor. More on the design: method as in Arimitsu et al., 1977. To be noted: ref Arimitsu et al., 1977, cited from earlier work.
Assay [8] relates to mice. More on the design: method as in Gairin et al., 1988a. To be noted: intracerebroventricular, ref Gairin et al., 1988a; cited from earlier work.
For assay [9], the system named is mice. Further details: method as in Gairin et al., 1988a. The following applies: intracerebroventricular, ref Gairin et al., 1988a; cited from earlier work. The source holds these as a separate data set.

Marks after values point to notes of the source that are not given here.

T1 sequence (P35372 whole entry): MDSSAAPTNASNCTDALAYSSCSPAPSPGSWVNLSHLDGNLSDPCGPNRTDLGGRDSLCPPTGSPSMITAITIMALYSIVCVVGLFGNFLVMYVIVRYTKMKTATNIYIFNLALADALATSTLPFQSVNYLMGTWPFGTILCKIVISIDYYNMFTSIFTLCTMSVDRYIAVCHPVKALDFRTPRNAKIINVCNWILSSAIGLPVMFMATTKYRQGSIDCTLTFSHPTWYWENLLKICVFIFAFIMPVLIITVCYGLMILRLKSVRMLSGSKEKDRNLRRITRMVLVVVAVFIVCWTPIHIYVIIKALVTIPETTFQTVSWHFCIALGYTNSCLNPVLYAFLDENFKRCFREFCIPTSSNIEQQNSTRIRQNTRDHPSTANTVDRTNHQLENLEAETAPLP
T2 sequence (P41143 whole entry): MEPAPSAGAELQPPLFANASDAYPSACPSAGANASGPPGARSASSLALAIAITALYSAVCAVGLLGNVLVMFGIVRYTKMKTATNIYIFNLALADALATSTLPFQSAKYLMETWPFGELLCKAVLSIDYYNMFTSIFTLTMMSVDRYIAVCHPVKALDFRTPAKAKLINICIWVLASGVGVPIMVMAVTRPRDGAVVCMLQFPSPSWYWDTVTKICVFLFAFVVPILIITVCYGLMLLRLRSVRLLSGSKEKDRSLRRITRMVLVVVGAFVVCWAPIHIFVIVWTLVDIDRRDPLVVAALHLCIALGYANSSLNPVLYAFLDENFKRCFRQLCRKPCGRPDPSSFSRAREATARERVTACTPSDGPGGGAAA
T3 sequence (P41145 whole entry): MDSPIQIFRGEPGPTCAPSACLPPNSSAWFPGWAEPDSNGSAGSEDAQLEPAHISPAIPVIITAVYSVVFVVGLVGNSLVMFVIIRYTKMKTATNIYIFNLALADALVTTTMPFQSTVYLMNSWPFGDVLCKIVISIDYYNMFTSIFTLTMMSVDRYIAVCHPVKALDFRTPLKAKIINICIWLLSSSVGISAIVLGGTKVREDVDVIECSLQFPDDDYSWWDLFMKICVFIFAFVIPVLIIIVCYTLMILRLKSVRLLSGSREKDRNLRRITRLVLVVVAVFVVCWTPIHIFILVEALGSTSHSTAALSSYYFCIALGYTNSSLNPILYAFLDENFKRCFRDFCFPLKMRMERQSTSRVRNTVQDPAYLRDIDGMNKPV

Take `C[C@@H](NC(=O)[C@@H](N)Cc1ccc(O)cc1)C(=O)N[C@@H](Cc1ccccc1)C(=O)NCC(=O)N[C@@H](Cc1ccc(O)cc1)C(=O)N1CCC[C@H]1C(=O)N[C@@H](CO)C(N)=O` [Dermorphin]: the Maximal effects on human mu opioid receptor (CHO cells, mu + Gαqi5) is 294 % over the baseline.
On to `CC[C@H](C)[C@H](NC(=O)[C@H](CCCNC(=N)N)NC(=O)[C@H](CCCNC(=N)N)NC(=O)[C@H](CC(C)C)NC(=O)[C@H](Cc1ccccc1)NC(=O)CNC(=O)CNC(=O)[C@@H](N)Cc1ccc(O)cc1)C(=O)N[C@@H](CCCNC(=N)N)C(=O)N1CCC[C@H]1C(=O)N[C@@H](CCCCN)C(=O)N[C@@H](CC(C)C)C(=O)N[C@@H](CCCCN)C(=O)N[C@@H](Cc1c[nH]c2ccccc12)C(=O)N[C@@H](CC(=O)O)C(=O)N[C@@H](CC(N)=O)C(=O)N[C@@H](CCC(N)=O)C(=O)O` [Dyn A, dynorphin A], for which the Maximal effects in assay [1] (CHO cells, delta + GαqG66Di5) came to 171 % over the baseline. In addition, in assay [2], the “Bias factor (CL95%)” value came to 0.00.
As to `CCCCCCCCCCCCCCCC(=O)NCCCN1C(=O)CC(SC[C@H](NC(=O)[C@H](CCC(N)=O)NC(=O)[C@H](CC(N)=O)NC(=O)[C@H](CC(=O)O)NC(=O)[C@H](Cc2c[nH]c3ccccc23)NC(=O)[C@H](CCCCN)NC(=O)[C@H](CC(C)C)NC(=O)[C@H](CCCCN)NC(=O)[C@@H]2CCCN2C(=O)[C@H](CCCNC(=N)N)NC(=O)[C@@H](NC(=O)[C@H](CCCNC(=N)N)NC(=O)[C@H](CCCNC(=N)N)NC(=O)[C@H](CC(C)C)NC(=O)[C@H](Cc2ccccc2)NC(=O)CNC(=O)CNC(=O)[C@@H](N)Cc2ccc(O)cc2)[C@@H](C)CC)C(N)=O)C1=O` (some centres unmarked) [Dyn A-palmitic], the “Lower potency than dermorphin” value on human mu opioid receptor (calcium mobilization, mu) is on record as “approximately 6 fold”. The “Less potent than DPDPE” value in [1] (calcium mobilization, delta) is 10 fold.
Regarding `Nc1nc2c(ncn2[C@@H]2O[C@H](COP(=O)(O)OP(=O)(O)O)[C@@H](O)[C@H]2O)c(=O)[nH]1` [GDP, guanosine diphosphate], the “pEC50 (CL95%)” value in assay [3] (5 min after compound addition) is on record as 8.20; in [3] (30 min after compound addition), 8.21.
What is called EC50 is the concentration giving half of the maximal effect. Turning to `CC[C@H](C)[C@H](NC(=O)[C@H](CCCNC(=N)N)NC(=O)[C@H](CCCNC(=N)N)NC(=O)[C@H](CC(C)C)NC(=O)[C@H](Cc1ccccc1)NC(=O)CNC(=O)CNC(=O)[C@@H](N)Cc1ccc(O)cc1)C(=O)N[C@@H](CCCNC(=N)N)C(=O)N1CCC[C@H]1C(=O)N[C@@H](CCCCN)C(=O)N[C@@H](CC(C)C)C(=O)N[C@@H](CCCCN)C(=O)N[C@@H](Cc1c[nH]c2ccccc12)C(=O)N[C@@H](CC(=O)O)C(=O)N[C@@H](CC(N)=O)C(=O)N[C@@H](CCC(N)=O)C(=O)N[C@@H](CSC1CC(=O)N(CCCC(=O)N2CCCN(C(=O)CCCN3C(=O)CC(SC[C@H](NC(=O)[C@H](CCC(N)=O)NC(=O)[C@H](CC(N)=O)NC(=O)[C@H](CC(=O)O)NC(=O)[C@H](Cc4c[nH]c5ccccc45)NC(=O)[C@H](CCCCN)NC(=O)[C@H](CC(C)C)NC(=O)[C@H](CCCCN)NC(=O)[C@@H]4CCCN4C(=O)[C@H](CCCNC(=N)N)NC(=O)[C@@H](NC(=O)[C@H](CCCNC(=N)N)NC(=O)[C@H](CCCNC(=N)N)NC(=O)[C@H](CC(C)C)NC(=O)[C@H](Cc4ccccc4)NC(=O)CNC(=O)CNC(=O)[C@@H](N)Cc4ccc(O)cc4)[C@@H](C)CC)C(N)=O)C3=O)CCN(C(=O)CCCN3C(=O)CC(SC[C@H](NC(=O)[C@H](CCC(N)=O)NC(=O)[C@H](CC(N)=O)NC(=O)[C@H](CC(=O)O)NC(=O)[C@H](Cc4c[nH]c5ccccc45)NC(=O)[C@H](CCCCN)NC(=O)[C@H](CC(C)C)NC(=O)[C@H](CCCCN)NC(=O)[C@@H]4CCCN4C(=O)[C@H](CCCNC(=N)N)NC(=O)[C@@H](NC(=O)[C@H](CCCNC(=N)N)NC(=O)[C@H](CCCNC(=N)N)NC(=O)[C@H](CC(C)C)NC(=O)[C@H](Cc4ccccc4)NC(=O)CNC(=O)CNC(=O)[C@@H](N)Cc4ccc(O)cc4)[C@@H](C)CC)C(N)=O)C3=O)CCCN(C(=O)CCCN3C(=O)CC(SC[C@H](NC(=O)[C@H](CCC(N)=O)NC(=O)[C@H](CC(N)=O)NC(=O)[C@H](CC(=O)O)NC(=O)[C@H](Cc4c[nH]c5ccccc45)NC(=O)[C@H](CCCCN)NC(=O)[C@H](CC(C)C)NC(=O)[C@H](CCCCN)NC(=O)[C@@H]4CCCN4C(=O)[C@H](CCCNC(=N)N)NC(=O)[C@@H](NC(=O)[C@H](CCCNC(=N)N)NC(=O)[C@H](CCCNC(=N)N)NC(=O)[C@H](CC(C)C)NC(=O)[C@H](Cc4ccccc4)NC(=O)CNC(=O)CNC(=O)[C@@H](N)Cc4ccc(O)cc4)[C@@H](C)CC)C(N)=O)C3=O)CC2)C1=O)C(N)=O` (some centres unmarked) [PWT2-Dyn A], the “Agonist activity (in words)” value on human mu opioid receptor (CHO cells, mu + Gαqi5) is “inactive”. In addition, in assay [1] (only at the highest concentration tested), the Stimulatory effect was 77 % over the baseline. In addition, the “Bias factor (CL95%)” value in assay [2] is “∼0.18 ^c”. In assay [4], the “Calcium Mobilization α (intrinsic activity: maximal effect divided by that of Dyn A)” value is on record as “∼1.00” and the concentration giving a half-maximal response (EC50) was 30.9 nM. In assay [5], the “DMR α” value is reported as 0.84 and the “Lower potency than Dyn A” value is 4 fold. The “Lower potency than dynorphin A” value in [6] was 3–10 fold. Moreover, in [3], the “BRET G Protein α” value is on record as “∼1.00” and the “Lower potency than Dyn A” value is 3 fold. Moreover, the midpoint of the response in [3] (BRET G Protein pEC50 (CL95%)), the EC50, lay at 18.6 nM. In assay [7], the “BRET β-Arrestin 2 α” value is “∼1.00”, a half-maximal response (EC50) required 219 nM and the “Lower potency than Dyn A” value turned out to be 3 fold.
Take `CC[C@H](C)[C@H](NC(=O)[C@H](CCCNC(=N)N)NC(=O)[C@H](CCCNC(=N)N)NC(=O)[C@H](CC(C)C)NC(=O)[C@H](Cc1ccccc1)NC(=O)CNC(=O)CNC(=O)[C@@H](N)Cc1ccc(O)cc1)C(=O)N[C@@H](CCCNC(=N)N)C(=O)N1CCC[C@@H]1C(=O)N[C@@H](CCCCN)C(N)=O` [[D-Pro^10], [D-Pro^10]Dyn(1-11)-NH2]: in [4], the “Calcium Mobilization pEC50 (CL95%)” value is 9.08 (8.93–9.23) and the “Calcium Mobilization α (intrinsic activity: maximal effect divided by that of Dyn A)” value came to 1.00. In [5], the “DMR Emax” value worked out at 251 pm, the “DMR pEC50 (CL95%)” value is on record as 9.84 (9.31–10.37) and the “DMR α” value was found to be 1.07. Besides, in [3], the “BRET G Protein pEC50 (CL95%)” value is recorded as 8.36 (6.54–10.19) and the “BRET G Protein α” value was determined as 1.00. In addition, in [7], the “BRET β-Arrestin 2 pEC50 (CL95%)” value is recorded as 8.07 (7.66–8.47) and the “BRET β-Arrestin 2 α” value was 0.95.
In the case of [D-Pro^10]Dyn(1-11), the “Higher affinity to the kappa opioid receptor than Dyn A” value with kappa opioid receptor ([^3H]Bremazocine binding) is listed as 7 fold. Moreover, in the assay on kappa opioid receptor, the “Selectivity over the delta opioid receptor” value was 233 fold and the “Selectivity over the mu opioid receptor” value was 62 fold. Further, the “Activity against thermal stimulus (tail-flick)” value in the assay with mice [8] is recorded as “did not show any activity”. Further, the “Effect in acetic acid-induced writhing” value in the assay on mice [9] was “dose-dependent antinociceptive effect”.
